Test results: patent US20260334439A1, “BCAT2 INHIBITORS” (Agios Pharmaceuticals, Inc., priority 2023, published 2026)

Experiments:
BCAT2 [1] = target: T1, BCAT2 (Homo sapiens, UniProt O15382); assay: BCAT2 cell inhibition using engineered A549 cells (MUT KO, BCAT1 KO; 13C6-KMV formation by LC-MS/MS); format: cell-based; parameters: expressed endogenous BCAT2; endogenous in cells; host or cells: A549 cells, MUT knockout and BCAT1 knockout
T1 sequence (O15382 28-392): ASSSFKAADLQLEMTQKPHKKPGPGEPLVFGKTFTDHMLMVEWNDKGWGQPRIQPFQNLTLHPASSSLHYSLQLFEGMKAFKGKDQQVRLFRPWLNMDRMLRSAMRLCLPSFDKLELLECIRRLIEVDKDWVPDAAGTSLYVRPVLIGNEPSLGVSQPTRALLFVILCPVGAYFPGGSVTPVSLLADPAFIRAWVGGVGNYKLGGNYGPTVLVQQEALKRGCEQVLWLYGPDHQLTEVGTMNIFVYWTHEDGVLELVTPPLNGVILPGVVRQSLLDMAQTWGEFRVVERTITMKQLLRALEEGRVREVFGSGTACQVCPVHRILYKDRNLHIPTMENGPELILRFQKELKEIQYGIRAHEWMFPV
Text: Endogenous Methylmalonyl-CoA Mutase (MUT) and Branched Chain Aminotransferase 1 (BCAT1) in A549 cells was knocked out by CRISPR/CAS9 using the targeting system from TransOMIC Technologies. The following guide sequence was cloned into pCLIP-ALL-EFS-Blast vector to target human MUT: […] (SEQ ID NO: 35). The following guide sequence was cloned into pCLIP-ALL-EFS-Puro vector to target human BCAT1: […] (SEQ ID NO: 36). The resulting plasmids were co-transfected into 293T cells with VSV-G, P-PEX, and Fugene-6. Lentivirus was harvested and A549 cells were first transduced with lentivirus targeting MUT and polybrene. After genetic selection with blasticidin clonal selection was performed and validated via western blot analysis to confirm MUT was no longer expressed. These MUT KO cells were then transduced with lentivirus targeting BCAT1 and polybrene. After selection with puromycin clonal selection was performed and clones were validated via western blot analysis to confirm BCAT1 was no longer expressed in these cells. The result was an engineered A549 cell line that expressed endogenous BCAT2.
For KMV cell assays, on day 1, 25,000 cells/100 μL EMEM (10% FBS) were seeded in each well of a 96-well plate. On day 2, medium was replaced with 50 μL fresh EMEM (10% dialyzed FBS) containing 2× the assay concentration of experimental compound. After 15 minutes, 50 μL of 800 uM ^15N,^13C6-Isoleucine in EMEM (10% dialyzed FBS) was added to each well and incubated for 24 hours. On day 3, 50 μL of media from each well was collected and transferred to another 96-well plate for ^13C6-3-Methyl-2-Oxopentanoic Acid (KMV) analysis via LC-MS/MS. In the remaining assay wells 50 μL of Promega Glo CTG reagent was added and luminescence was measured as a cell viability readout.
For LC-MS/MS analysis 5 μL of cell assay media from each well was transferred to a 96-well plate and 45 μL of ACN:0.1% NaOH (50:50, v/v)^+0.20 nM d8-KMV was added and mixed on a shaker. 15 μL was transferred to a new 96-well plate and 15 μL of 10 mg/mL PFBHA solution was added and mixed on the shaker. The reaction was placed on ice for 30 minutes and quenched with 10 μL of ACN: Acetone (50:50, v/v) on a shaker. The resulting mixture was diluted with 100 μL of ACN:0.1% NaOH (50:50, v/v) on a shaker. 10 μL of sample were injected on the Shimadzu 20AD LC-MS/MS to quantify ^13C6-KMV.
Where a compound was tested multiple times, the average value of the tests is reported.

BCAT2 [2] = target: T1, BCAT2; assay: BCAT2 in vitro enzyme inhibition assay (hBCAT2, glutamate dehydrogenase/diaphorase/resazurin coupled fluorescence read); format: biochemical; settings: hBCAT2, 1 h preincubation at 25° C., one hour reaction; average where tested multiple times
Method in brief: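 hBCAT2 (0.33 μg/mL in mix) preincubated 1 h at 25 °C with compound (top 100 μM, 3-fold, 10 points) in Tris pH 8.0/NaCl/BSA; substrate mix added (L-leucine, α-ketoglutarate, GDH, NAD, diaphorase, resazurin), quenched with SDS after 1 h, fluorescence Ex 540/Em 590; duplicates, repeat tests averaged.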

[3] = read-out: BCAT2 Cell Inhibition (IC50), engineered A549 cells, 24 hours, 13C6-KMV in media, average where tested multiple times

IC50 (BCAT2 [1]) [nM]	IC50 (BCAT2 [2]) [nM]	IC50 (BCAT2 [1]; [3]) [nM]	SMILES
< 100	< 100	–	O=C(N[C@H]1CCC[C@@H](n2c(-c3ccccc3F)nc3cnc(-c4nc[nH]n4)cc32)C1)c1cc(Cl)cc2ccoc12 [Example 31, 5-chloro-N-((1S,3R)-3-(2-(2-fluorophenyl)-6-(1H-1,2,4-triazol-3-yl)-1H-imidazo[4,5-c]pyridin-1-yl)cyclohexyl)benzofuran-7-carboxamide]
–	100 to 500	> 1000	CCNc1ccc(Cl)cc1C(=O)N[C@H]1CCC[C@@H](n2c(-c3ccccc3F)nc3cnc(-c4nc[nH]n4)cc32)C1 [Example 32, 5-chloro-2-(ethylamino)-N-((1S,3R)-3-(2-(2-fluorophenyl)-6-(1H-1,2,4-triazol-3-yl)-1H-imidazo[4,5-c]pyridin-1-yl)cyclohexyl)benzamide]
500 to 1000	< 100	–	COc1ccc(C#N)cc1C(=O)N[C@H]1CCC[C@@H](n2c(-c3ccccc3F)nc3cnc(-c4nc[nH]n4)cc32)C1 [Example 33, 5-cyano-N-((1S,3R)-3-(2-(2-fluorophenyl)-6-(1H-1,2,4-triazol-3-yl)-1H-imidazo[4,5-c]pyridin-1-yl)cyclohexyl)-2-methoxybenzamide]
< 100	< 100	–	O=C(N[C@H]1CCC[C@@H](n2c(-c3ccccc3F)nc3cnc(-c4nc[nH]n4)cc32)C1)c1cc(Cl)ccc1OCCO [Example 34, 5-chloro-N-((1S,3R)-3-(2-(2-fluorophenyl)-6-(1H-1,2,4-triazol-3-yl)-1H-imidazo[4,5-c]pyridin-1-yl)cyclohexyl)-2-(2-hydroxyethoxy)benzamide]
500 to 1000	100 to 500	–	O=C(N[C@H]1CCC[C@@H](n2c(-c3ccccc3F)nc3cnc(-c4nc[nH]n4)cc32)C1)c1cc(Cl)ccc1OCCN1CCCC1 [Example 35, 5-chloro-N-((1S,3R)-3-(2-(2-fluorophenyl)-6-(1H-1,2,4-triazol-3-yl)-1H-imidazo[4,5-c]pyridin-1-yl)cyclohexyl)-2-(2-(pyrrolidin-1-yl)ethoxy)benzamide]
< 100	< 100	–	CC(C)Oc1ccc(Cl)cc1C(=O)N[C@H]1CCC[C@@H](n2c(-c3ccccc3C#N)nc3cnc(-c4nc[nH]n4)cc32)C1 [Example 36, 5-chloro-N-((1S,3R)-3-(2-(2-cyanophenyl)-6-(1H-1,2,4-triazol-3-yl)-1H-imidazo[4,5-c]pyridin-1-yl)cyclohexyl)-2-isopropoxybenzamide]
500 to 1000	< 100	–	CN(C)Cc1ccc(Cl)cc1C(=O)N[C@H]1CCC[C@@H](n2c(-c3ccccc3F)nc3cnc(-c4nc[nH]n4)cc32)C1 [Example 37, 5-chloro-2-((dimethylamino)methyl)-N-((1S,3R)-3-(2-(2-fluorophenyl)-6-(1H-1,2,4-triazol-3-yl)-1H-imidazo[4,5-c]pyridin-1-yl)cyclohexyl)benzamide]
< 100	< 100	–	CC(C)(O)COc1ccc(Cl)cc1C(=O)N[C@H]1CCC[C@@H](n2c(-c3ccccc3F)nc3cnc(-c4nc[nH]n4)cc32)C1 [Example 39, 5-chloro-N-((1S,3R)-3-(2-(2-fluorophenyl)-6-(1H-1,2,4-triazol-3-yl)-1H-imidazo[4,5-c]pyridin-1-yl)cyclohexyl)-2-(2-hydroxy-2-methylpropoxy)benzamide]
100 to 500	< 100	–	O=C(N[C@H]1CCC[C@@H](n2c(-c3ccccc3F)nc3cnc(-c4nc[nH]n4)cc32)C1)c1cc(Cl)ccc1CO [Example 40, 5-chloro-N-((1S,3R)-3-(2-(2-fluorophenyl)-6-(1H-1,2,4-triazol-3-yl)-1H-imidazo[4,5-c]pyridin-1-yl)cyclohexyl)-2-(hydroxymethyl)benzamide]
< 100	< 100	–	N#Cc1ccccc1-c1nc2cnc(-c3nc[nH]n3)cc2n1[C@@H]1CCC[C@H](NC(=O)c2cc(Cl)ccn2)C1 [Example 45, 4-chloro-N-((1S,3R)-3-(2-(2-cyanophenyl)-6-(1H-1,2,4-triazol-3-yl)-1H-imidazo[4,5-c]pyridin-1-yl)cyclohexyl)picolinamide]
< 100	< 100	–	O=C(N[C@H]1CCC[C@@H](n2c(-c3ccccc3F)nc3cnc(-c4nc[nH]n4)cc32)C1)c1cc(Cl)ccc1O [Example 53, 5-chloro-N-((1S,3R)-3-(2-(2-fluorophenyl)-6-(1H-1,2,4-triazol-3-yl)-1H-imidazo[4,5-c]pyridin-1-yl)cyclohexyl)-2-hydroxybenzamide]
< 100	< 100	–	COCCOc1ccc(Cl)cc1C(=O)N[C@H]1CCC[C@@H](n2c(-c3ccccc3F)nc3cnc(-c4nc[nH]n4)cc32)C1 [Example 54, 5-chloro-N-((1S,3R)-3-(2-(2-fluorophenyl)-6-(1H-1,2,4-triazol-3-yl)-1H-imidazo[4,5-c]pyridin-1-yl)cyclohexyl)-2-(2-methoxyethoxy)benzamide]
–	< 100	> 1000	CN(C)CCOc1ccc(Cl)cc1C(=O)N[C@H]1CCC[C@@H](n2c(-c3ccccc3F)nc3cnc(-c4nc[nH]n4)cc32)C1 [Example 55, 5-chloro-2-(2-(dimethylamino)ethoxy)-N-((1S,3R)-3-(2-(2-fluorophenyl)-6-(1H-1,2,4-triazol-3-yl)-1H-imidazo[4,5-c]pyridin-1-yl)cyclohexyl)benzamide]
< 100	< 100	–	O=C(N[C@H]1CCC[C@@H](n2c(-c3ccccc3F)nc3cnc(-c4nc[nH]n4)cc32)C1)c1cc(Cl)ccc1F [Example 56, 5-chloro-2-fluoro-N-((1S,3R)-3-(2-(2-fluorophenyl)-6-(1H-1,2,4-triazol-3-yl)-1H-imidazo[4,5-c]pyridin-1-yl)cyclohexyl)benzamide]
500 to 1000	< 100	–	CC(C)Cc1nc2cnc(-n3nccn3)cc2n1[C@@H]1CCC[C@H](NC(=O)c2cc(Cl)ccc2OCCO)C1 [Example 57, 5-chloro-2-(2-hydroxyethoxy)-N-((1S,3R)-3-(2-isobutyl-6-(2H-1,2,3-triazol-2-yl)-1H-imidazo[4,5-c]pyridin-1-yl)cyclohexyl)benzamide]
< 100	< 100	–	O=C(N[C@H]1CCC[C@@H](n2c(-c3ccccc3F)nc3cnc(-c4nc[nH]n4)cc32)C1)c1cc(F)ccc1F [Example 58, 2,5-difluoro-N-((1S,3R)-3-(2-(2-fluorophenyl)-6-(1H-1,2,4-triazol-3-yl)-1H-imidazo[4,5-c]pyridin-1-yl)cyclohexyl)benzamide]
< 100	< 100	–	COCCOc1ccc(F)cc1C(=O)N[C@H]1CCC[C@@H](n2c(-c3ccccc3F)nc3cnc(-c4nc[nH]n4)cc32)C1 [Example 59, 5-fluoro-N-((1S,3R)-3-(2-(2-fluorophenyl)-6-(1H-1,2,4-triazol-3-yl)-1H-imidazo[4,5-c]pyridin-1-yl)cyclohexyl)-2-(2-methoxyethoxy)benzamide]

SMILES	IC50 (BCAT2 [1]) [nM]	IC50 (BCAT2 [2]) [nM]	IC50 (BCAT2 [1]; [3]) [nM]
CC(C)COc1ccc(Cl)cc1C(=O)N[C@H]1CCC[C@@H](n2c(-c3ccccc3C#N)nc3cnc(-c4nc[nH]n4)cc32)C1 [Example 49, 5-chloro-N-((1S,3R)-3-(2-(2-cyanophenyl)-6-(1H-1,2,4-triazol-3-yl)-1H-imidazo[4,5-c]pyridin-1-yl)cyclohexyl)-2-isobutoxybenzamide]	100 to 500	< 100	–
